From PMC11494505, “Asymmetric Monoreduction of α,β-Dicarbonyls to α-Hydroxy Carbonyls by Ene Reductases” (ACS Catalysis, 2024)

How the values were obtained:
CC(=O)C(=O)c1ccccc1 = system: T1, CC(=O)C(=O)c1ccccc1; experiment: steady-state Michaelis-Menten kinetics; assay type: biochemical, Saccharomyces cerevisiae; settings: NADPH as cofactor
T1 construct: wild type, N-terminal His-tag (pET-28a(+)), E. coli BL21 Gold(DE3), IMAC, FMN-loaded

XenA = target: T2, XenA (Pseudomonas putida, UniProt Q9R9V9); experiment: bioconversion to 7b, HPLC; assay type: biochemical; settings: 10 mM substrate, 5 μM enzyme, 11 mM NADPH, 2% DMSO, pH 7.0, 30 °C, 6 h
T2 construct: recombinant in-house enzyme; details in supplement
T2 sequence (Q9R9V9 entry or part of it): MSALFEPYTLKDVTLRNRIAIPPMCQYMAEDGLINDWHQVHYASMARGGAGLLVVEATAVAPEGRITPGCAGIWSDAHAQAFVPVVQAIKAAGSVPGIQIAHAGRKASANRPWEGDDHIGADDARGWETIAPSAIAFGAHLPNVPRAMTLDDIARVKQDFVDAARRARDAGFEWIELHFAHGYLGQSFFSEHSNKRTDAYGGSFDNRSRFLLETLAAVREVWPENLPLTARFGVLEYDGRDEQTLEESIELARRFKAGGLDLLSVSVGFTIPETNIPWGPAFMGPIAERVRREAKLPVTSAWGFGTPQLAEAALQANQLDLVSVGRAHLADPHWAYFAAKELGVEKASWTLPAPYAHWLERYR

OYE2 [1] = target: T3, OYE2 (Saccharomyces cerevisiae, UniProt Q03558); experiment: bioconversion to 7b, HPLC; assay type: biochemical; settings: 10 mM substrate, 5 μM enzyme, 11 mM NADPH, 2% DMSO, pH 7.0, 30 °C, 6 h
T3 construct: wild type, N-terminal His-tag (pET-28a(+)), E. coli BL21 Gold(DE3), IMAC, FMN-loaded
T3 sequence (Q03558 whole entry): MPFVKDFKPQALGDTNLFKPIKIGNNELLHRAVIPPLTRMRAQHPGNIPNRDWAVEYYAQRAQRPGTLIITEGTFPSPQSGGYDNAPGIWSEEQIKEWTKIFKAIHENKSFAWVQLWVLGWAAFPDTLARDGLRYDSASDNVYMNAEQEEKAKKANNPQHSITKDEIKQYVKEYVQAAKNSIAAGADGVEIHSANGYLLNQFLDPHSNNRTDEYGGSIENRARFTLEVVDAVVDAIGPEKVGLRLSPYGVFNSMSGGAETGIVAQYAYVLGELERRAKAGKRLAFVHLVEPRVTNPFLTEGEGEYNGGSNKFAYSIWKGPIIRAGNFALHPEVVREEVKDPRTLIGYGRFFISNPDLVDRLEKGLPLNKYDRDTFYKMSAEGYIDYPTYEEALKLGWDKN

GluER [2] = target: T4, GluER (Gluconobacter oxydans, UniProt Q5FTL6); experiment: bioconversion to 7b and 7c, HPLC / GC; assay type: biochemical; settings: 10 mM substrate, 5 μM enzyme, 1.1 eq. NADPH, 2% DMSO, pH 7.0, 30 °C, 6 h
T4 construct: gene GOX0502; wild type, N-terminal His-tag (pET-28a(+)), E. coli BL21 Gold(DE3), IMAC, FMN-loaded
T4 sequence (Q5FTL6 entry or part of it): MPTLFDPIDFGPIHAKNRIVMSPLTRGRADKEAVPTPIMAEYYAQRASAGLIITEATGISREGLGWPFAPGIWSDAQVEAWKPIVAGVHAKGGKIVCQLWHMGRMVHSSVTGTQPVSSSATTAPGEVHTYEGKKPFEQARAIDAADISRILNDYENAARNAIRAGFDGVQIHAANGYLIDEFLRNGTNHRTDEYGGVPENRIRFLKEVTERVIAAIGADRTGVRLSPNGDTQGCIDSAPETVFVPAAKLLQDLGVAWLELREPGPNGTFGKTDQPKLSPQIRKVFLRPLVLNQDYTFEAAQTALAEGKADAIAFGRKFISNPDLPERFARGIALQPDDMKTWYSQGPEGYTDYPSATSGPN

TsOYE = target: T5, TsOYE (Thermus scotoductus, UniProt B0JDW3); experiment: bioconversion to 7b, HPLC; assay type: biochemical; settings: 10 mM substrate, 5 μM enzyme, 11 mM NADPH, 2% DMSO, pH 7.0, 30 °C, 6 h
T5 construct: gene chrR; wild type, pET-28a(+), E. coli BL21 Gold(DE3), N-terminal His-tag, heat purified (70 °C)

YqjM = target: T6, YqjM (Bacillus subtilis, UniProt P54550); experiment: bioconversion to 7b, HPLC; assay type: biochemical; settings: 10 mM substrate, 5 μM enzyme, 11 mM NADPH, 2% DMSO, pH 7.0, 30 °C, 6 h
T6 construct: gene namA; recombinant, purified; details in supplement
T6 sequence (P54550 2-338): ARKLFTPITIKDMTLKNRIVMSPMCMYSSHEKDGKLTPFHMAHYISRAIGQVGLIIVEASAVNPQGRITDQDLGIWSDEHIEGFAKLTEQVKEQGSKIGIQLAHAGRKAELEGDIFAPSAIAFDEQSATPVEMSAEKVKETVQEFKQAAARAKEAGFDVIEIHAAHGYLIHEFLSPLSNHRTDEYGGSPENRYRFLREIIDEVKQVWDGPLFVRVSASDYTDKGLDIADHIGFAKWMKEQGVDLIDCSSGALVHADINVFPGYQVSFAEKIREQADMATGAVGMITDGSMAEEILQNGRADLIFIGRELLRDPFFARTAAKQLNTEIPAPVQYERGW

EPB1 = target: T7, EPB1 (Candida albicans, UniProt A0A1D8PPK1); experiment: bioconversion to 7b, HPLC; assay type: biochemical; settings: 10 mM substrate, 5 μM enzyme, 11 mM NADPH, 2% DMSO, pH 7.0, 30 °C, 6 h
T7 construct: gene EBP1; wild type, N-terminal His-tag (pET-28a(+)), E. coli BL21 Gold(DE3); spelled EBP1 in Methods
T7 sequence (A0A1D8PPK1 whole entry): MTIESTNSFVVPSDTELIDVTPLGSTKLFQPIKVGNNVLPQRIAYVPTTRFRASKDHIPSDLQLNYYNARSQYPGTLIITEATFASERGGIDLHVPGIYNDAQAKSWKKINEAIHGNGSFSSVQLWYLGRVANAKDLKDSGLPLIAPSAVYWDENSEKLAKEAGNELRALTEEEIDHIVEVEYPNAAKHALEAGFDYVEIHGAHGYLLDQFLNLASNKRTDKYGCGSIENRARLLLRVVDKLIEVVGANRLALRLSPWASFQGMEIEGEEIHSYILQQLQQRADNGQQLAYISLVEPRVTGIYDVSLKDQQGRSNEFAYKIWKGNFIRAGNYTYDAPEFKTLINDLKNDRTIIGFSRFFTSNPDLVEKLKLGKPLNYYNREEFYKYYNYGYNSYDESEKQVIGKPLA

TOYE = target: T8, TOYE (Thermoanaerobacter pseudethanolicus, UniProt B0KAH1); experiment: bioconversion to 7b, HPLC; assay type: biochemical; settings: 10 mM substrate, 5 μM enzyme, 11 mM NADPH, 2% DMSO, pH 7.0, 30 °C, 6 h
T8 construct: gene Teth39_0012; recombinant in-house enzyme; details in supplement
T8 sequence (B0KAH1 entry or part of it): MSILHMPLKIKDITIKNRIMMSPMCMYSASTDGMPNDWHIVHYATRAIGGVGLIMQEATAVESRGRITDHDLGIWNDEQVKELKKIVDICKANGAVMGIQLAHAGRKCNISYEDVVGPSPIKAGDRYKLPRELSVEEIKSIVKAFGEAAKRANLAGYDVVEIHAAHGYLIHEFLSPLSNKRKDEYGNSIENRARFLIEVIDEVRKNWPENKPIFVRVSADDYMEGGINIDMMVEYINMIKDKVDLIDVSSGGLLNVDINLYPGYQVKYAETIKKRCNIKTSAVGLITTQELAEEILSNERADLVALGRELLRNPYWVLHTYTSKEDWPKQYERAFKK

PETNR = target: T9, PETNR (Enterobacter cloacae, UniProt P71278); experiment: bioconversion to 7b, HPLC; assay type: biochemical; settings: 10 mM substrate, 5 μM enzyme, 11 mM NADPH, 2% DMSO, pH 7.0, 30 °C, 6 h
T9 construct: gene onr; recombinant in-house enzyme; details in supplement
T9 sequence (P71278 entry or part of it): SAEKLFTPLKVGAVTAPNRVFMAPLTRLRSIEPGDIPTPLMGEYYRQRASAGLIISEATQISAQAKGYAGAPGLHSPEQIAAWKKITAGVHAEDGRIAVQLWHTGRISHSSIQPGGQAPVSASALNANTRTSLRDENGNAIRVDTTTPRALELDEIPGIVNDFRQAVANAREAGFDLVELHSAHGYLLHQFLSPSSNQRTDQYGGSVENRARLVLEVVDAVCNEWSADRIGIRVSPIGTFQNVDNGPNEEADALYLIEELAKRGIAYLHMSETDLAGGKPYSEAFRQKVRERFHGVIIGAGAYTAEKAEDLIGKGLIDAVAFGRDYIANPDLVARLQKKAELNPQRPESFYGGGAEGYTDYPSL

GluER [3] = target: T4, GluER; experiment: bioconversion to 2-hydroxyhexan-3-one, chiral GC; assay type: biochemical; settings: 10 mM substrate, 5 μM enzyme, 1.1 eq. NADPH, 2% DMSO, pH 7.0, 30 °C, 6 h
OYE2 [4] = target: T3, OYE2; experiment: bioconversion, GC; assay type: biochemical; settings: 10 mM substrate, 5 μM enzyme, 11 mM NADPH, 2% DMSO, pH 7.0, 30 °C, 6 h; product detected as 8c by GC

With OYE3 (Saccharomyces cerevisiae S288C) the Km (CC(=O)C(=O)c1ccccc1) was 2.46 ± 0.25 mM and the kcat (CC(=O)C(=O)c1ccccc1) was 0.71 ± 0.03 s⁻¹.
In the case of CC(=O)C(=O)c1ccccc1 [7a, 1-phenyl-1,2-propanedione], the “bioconversion to 7b, HPLC” value (XenA) is reported as “class III (TsOYE, XenA, TOYE, YqjM)”, the “bioconversion to 7b, HPLC” value (OYE2 [1]) is reported as “Nine of the enzymes produced the single product 7b” and the “bioconversion to 7b and 7c, HPLC / GC” value (GluER [2]) is reported as “GluER was the most versatile ERED, able to reduce 1a–5a, 7a, and 8a”. The “bioconversion to 7b, HPLC” value (TsOYE) was “class III (TsOYE, XenA, TOYE, YqjM)”, the “bioconversion to 7b, HPLC” value (YqjM) was “class III (TsOYE, XenA, TOYE, YqjM)” and the “bioconversion to 7b, HPLC” value (EPB1) was “class II (OYE3, OYE2, EPB1)”. The “bioconversion to 7b, HPLC” value (TOYE) was “class III (TsOYE, XenA, TOYE, YqjM)” and the “bioconversion to 7b, HPLC” value (PETNR) was “Nine of the enzymes produced the single product 7b; class I (PETNR, NCR)”.
In the case of CCCC(=O)C(C)=O [2a, 2,3-hexanedione], the “% conversion” value (GluER [3]) is reported as 19%.
With O=CC(=O)c1ccccc1 [8a, phenylglyoxal] the “bioconversion, GC” value (OYE2 [4]) was “could confirm excellent conversions with 8a”.
